Patent publication US5712300A, “Hydroxamic acid derivatives useful for the treatment of diseases related to connective tissue degradation” (priority 1997, dated 1998)

Experiments:
Format in all cases: biochemical
[1] = target: Stromelysin (Homo sapiens, UniProt P08254); assay: MMP inhibition by particle concentration fluorescence technique (stromelysin); settings: pH 7.5; 15 min enzyme preincubation; substrate 1-3 h at room temperature; read-out: MMP Inhibition Constants, Stromelysin Ki
Excerpt: An inhibitor binds to MMP enzymes prevents the degradation of a substrate of stromelysin, gelatinase, or collagenase. The substrate is attached with a fluorescein and a biotin. The intact substrate then binds to an avidin-coated particle via the biotin moiety. Once the particle is washed and dried, a fluorescent signal is generated since the fluorescent group is attached to the particle. Without an inhibitor present, the substrate is degraded by MMP enzymes and the fluorescein group is removed, therefore, no fluorescent signal can be detected. […] Serial two-fold dilutions of each compound are prepared. A concentrated, activated enzyme solution is transferred into each plate of the testing compounds, and the mixture is incubated at room temperature for 15 minutes.

[2] = target: T1, Collagenase (Homo sapiens, UniProt P03956); assay: MMP inhibition by particle concentration fluorescence technique (collagenase); settings: pH 7.5; 15 min enzyme preincubation; substrate 1-3 h at room temperature; read-out: MMP Inhibition Constants, Collagenase Ki
T1 sequence (P03956 100-469): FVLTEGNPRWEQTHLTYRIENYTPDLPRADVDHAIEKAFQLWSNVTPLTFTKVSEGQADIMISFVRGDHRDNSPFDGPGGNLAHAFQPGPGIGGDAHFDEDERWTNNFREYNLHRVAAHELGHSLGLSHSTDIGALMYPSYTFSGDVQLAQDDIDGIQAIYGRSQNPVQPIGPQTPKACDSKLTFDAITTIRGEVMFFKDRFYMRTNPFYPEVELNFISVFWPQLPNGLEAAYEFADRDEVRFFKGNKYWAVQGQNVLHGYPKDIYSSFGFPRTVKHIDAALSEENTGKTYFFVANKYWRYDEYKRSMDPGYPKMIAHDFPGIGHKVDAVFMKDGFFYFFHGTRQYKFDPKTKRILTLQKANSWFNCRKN
Protocol: (§1) Inhibitory activity is evaluated in one or more of the MMP enzymes (stromelysin, gelatinase, and collagenase) in vitro using a particle concentration fluorescence techniques. An inhibitor binds to MMP enzymes prevents the degradation of a substrate of stromelysin, gelatinase, or collagenase. The substrate is attached with a fluorescein and a biotin. The intact substrate then binds to an avidin-coated particle via the biotin moiety. Once the particle is washed and dried, a fluorescent signal is generated since the fluorescent group is attached to the particle. Without an inhibitor present, the substrate is degraded by MMP enzymes and the fluorescein group is removed, therefore, no fluorescent signal can be detected. Testing compounds are dissolved in DMSO to the desired concentration, then the solutions are diluted to 1:5 with MMP buffer (50 mM Tris-HCl, pH 7.5; 150 mM NaCl; 0.02% NAN3). Serial two-fold dilutions of each compound are prepared. A concentrated, activated enzyme solution is transferred into each plate of the testing compounds, and the mixture is incubated at room temperature for 15 minutes. Thawed MMP substrate is then added into all plates, and the plates are incubate in the dark for 1-3 hours at room temperature. At this point, the substrate mixture is reacted with 0.1% avidin-coated polystyrene particles.

[3] = target: Gelatinase; assay: MMP inhibition by particle concentration fluorescence technique (gelatinase); settings: pH 7.5; 15 min enzyme preincubation; substrate 1-3 h at room temperature; read-out: MMP Inhibition Constants, Gelatinase Ki
Protocol: as §1

Stromelysin, sequence (P08254 100-477): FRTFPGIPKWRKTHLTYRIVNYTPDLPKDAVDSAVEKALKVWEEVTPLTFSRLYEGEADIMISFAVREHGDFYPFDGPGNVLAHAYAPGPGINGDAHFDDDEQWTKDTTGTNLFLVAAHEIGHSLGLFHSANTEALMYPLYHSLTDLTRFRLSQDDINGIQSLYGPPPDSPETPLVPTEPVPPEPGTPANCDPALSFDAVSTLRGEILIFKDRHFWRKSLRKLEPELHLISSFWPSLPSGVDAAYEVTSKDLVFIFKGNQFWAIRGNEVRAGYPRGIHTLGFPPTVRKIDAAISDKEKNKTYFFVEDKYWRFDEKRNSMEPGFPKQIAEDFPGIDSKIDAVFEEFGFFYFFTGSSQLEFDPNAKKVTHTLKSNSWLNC

Structure (SMILES) | Ki [1] [nM] | Ki [2] [nM] | Ki [3] [nM]
CC(C)C[C@@]1([C@@H](CCN2C(=O)c3ccc(C(F)(F)F)cc3C2=O)C(=O)NO)CCN(CCc2ccccc2)C1=O (relative stereo) [Example 65, N-Hydroxy-3-(2-methylpropyl)-2-oxo-1-(2-phenylethyl)-α-[2-(5-trifluoromethyl-1,3-dihydro-1,3-dioxo-2H-isoindol-2-yl)ethyl]-3-pyrrolidineacetamide] | 1050 | 510 | 227
CC(C)C[C@@]1([C@@H](CCN2C(=O)c3ccccc3C2=O)C(=O)NO)CCN(Cc2ccccc2)C1=O (relative stereo) [Example 22, α-[2-(1,3-Dihydro-1,3-dioxo-2H-isoindol-2-yl)ethyl]-N-hydroxy-3-(2-methylpropyl)-2-oxo-1-(phenylmethyl)-3-pyrrolidineacetamide] | 1960 | 2070 | 1300
CC(C)C[C@@]1([C@H](CCN2C(=O)c3ccccc3C2=O)C(=O)NO)CCN(CCc2ccc(F)cc2)C1=O (relative stereo) [Example 72, 1,3-Dihydro-N-hydroxy-α-[3-(2-methylpropyl)-2-oxo-1-[2-(4-fluorophenyl)ethyl]-3-pyrrolidinyl]-1,3-dioxo-2H-isoindole-2-butanamide] | 640 | 39 | 83
O=C(NCC[C@@H](C(=O)NO)[C@]1(CCO)CCN(CCc2ccccc2)C1=O)c1ccc(F)c(F)c1 (relative stereo) [Example 95, α-[2-[(3,4-Difluorobenzoyl)amino]ethyl]-N-hydroxy-3-(2-hydroxyethyl)-2-oxo-1-(2-phenylethyl)-3-pyrrolidineacetamide] | 119 | 25 | 13
CC(C)C[C@@]1([C@@H](CCN2C(=O)c3ccccc3S2(=O)=O)C(=O)NO)CCN(CCc2ccccc2)C1=O (relative stereo) [Example 69, α-[2-(o-benzoic sulfimide)ethyl]-N-hydroxy-3-(2-methylpropyl)-2-oxo-1-(2-phenylethyl)3-pyrrolidineacetamide] | 214 | 1200 | 498
O=C(NCC[C@@H](C(=O)NO)[C@]1(CCCO)CCN(CCc2ccccc2)C1=O)c1cccc(F)c1 [Example 96, [R-(R*,S*)]-α-[2-[(3-Fluorebenzoyl)amino]ethyl]-N-hydroxy-3-(3-hydroxypropyl)-2-oxo-1-(2-phenylethyl)-3-pyrrolidineacetamide] | 8.7 | 12.7 | 0.98
CNC(=O)[C@H](Cc1ccccc1)N1CC[C@@](CC(C)C)([C@@H](CCN2C(=O)c3ccccc3C2=O)C(=O)NO)C1=O (relative stereo) [Example 29, [R,R-(R*,R*)]-α^3-[2-(1,3-Dihydro-1,3-dioxo-2H-isoindol-2-yl)ethyl]-N^3-hydroxy-N^1-methyl-3-(2-methylpropyl)-2-oxo-α^1-(phenylmethyl)-1,3-pyrrolidinediacetamide] | 570 | 484 | 981
CC(C)CC1(C(CCN2C(=O)c3cc(F)c(F)cc3C2=O)C(=O)NO)CCN(CCc2ccccc2)C1=O (stereo not drawn) [Example 64, α-[2-(5,6-Difluoro-1,3-dihydro-1,3-dioxo-2H-isoindol-2-yl)ethyl]-N-hydroxy-3-(2-methylpropyl)-2-oxo-1-(2-phenylethyl)-3-pyrrolidineacetamide] | 107 | 735 | 49
CC(C)C[C@@]1([C@H](NS(=O)(=O)c2ccc(F)cc2)C(=O)NO)CCN(CCc2ccccc2)C1=O (relative stereo) [Example 93, α-[[(4-Fluorophenyl)sulfonyl]amino]-N-hydroxy-3-(2-methylpropyl)-2-oxo-1-(2-phenylethyl)-3-pyrrolidineacetamide] | 2080 | 98 | 1100
CC(C)C[C@@]1([C@@H](CCN2Cc3ccccc3C2=O)C(=O)NO)CCN(CCc2ccccc2)C1=O (relative stereo) [Example 86, 1,3-Dihydro-N-hydroxy-α-[8-(2-methylpropyl)-2-oxo-1-(2-phenylethyl)-3-pyrrolidinyl]-1-oxo-2H-isoindole-2-butanamide] | 102 | 647 | 46
COc1ccc(S(=O)(=O)NCC[C@@H](C(=O)NO)[C@]2(CC(C)C)CCN(CCc3ccccc3)C2=O)cc1 (relative stereo) [Example 82, N-Hydroxy-α-[2-[[(4-methoxyphenyl)sulfonyl]amino]ethyl]-3-(2-methylpropyl)-2-oxo-1-(2-phenylethyl)-3-pyrrolidineacetamide] | 379 | 2400 | 878

Results, then the compound that gave them:

Ki [1] [nM] | Ki [2] [nM] | Ki [3] [nM] | Structure (SMILES)
2100 | 35 | 40 | CC(C)C[C@@]1(CC(=O)NO)CCN([C@@H](Cc2ccccc2)C(=O)NCc2ccc(F)cc2)C1=O [Example 46, [S-(R*,R*)]-N^1-(4-Fluorophenylmethyl)-N^3-hydroxy-3-(2-methylpropyl)-2-oxo-α^1-(phenylmethyl)-1,3-pyrrolidinediacetamide]
2300 | 925 | 340 | CC(C)C[C@@]1(CC(=O)NO)CCN([C@@H](Cc2ccccc2)C(=O)N2C[C@@H](C)N[C@@H](C)C2)C1=O (relative stereo) [Example 56, [1(1S)-[1[R*(R*)],3α,5α]]-1-[2-(3,5-Dimethyl-1-piperazinyl)-2-oxo-1-(phenylmethyl)ethyl]-N-hydroxy-3-(2-methylpropyl)-2-oxo-3-pyrrolidineacetamide]
730 | 36 | 50 | CNC(=O)[C@H](CC(C)C)N1CC[C@](CC(=O)NO)(CC(C)C)C1=O [Example 32, [S-(R*,R*)]-N^3 -Hydroxy-N^1-methyl-α^1,3-bis(2-methylpropyl)-2-oxo-1,3-pyrrolidinediacetamide]
1800 | 2.36 | 2.3 | CC(C)C[C@@]1(CC(=O)NO)CCN([C@@H](Cc2ccccc2)C(=O)NC2CCN(Cc3ccccc3)CC2)C1=O [Example 43, [S-(R*,R*)]-N^3 -Hydroxy-3-(2-methylpropyl)-2-oxo-α^1-(phenylmethyl)-N^1-[1-(phenylmethyl)-4-piperdinyl]-1,3-pyrrolidinediacetamide]
27200 | 2300 | 3550 | CC(C)CC1(CC(=O)NO)CCN(CCc2ccccc2)C1=O (stereo not drawn) [Example 1, N-Hydroxy-3-(2-methylpropyl)-2-oxo-1-(2-phenylethyl)-3-pyrrolidineacetamide]
187 | 1.3 | 1.1 | CNC(=O)[C@H](Cc1ccccc1)N1CC[C@](CC(=O)NO)(CC2CCCC2)C1=O [Example 52, [S-(R*,R*)]-3-(Cyclopentylmethyl)-N^3-hydroxy-N^1-methyl-2-oxo-α^1-(phenylmethyl)-1,3-pyrrolidinediacetamide]
16600 | 579 | 3100 | CNC(=O)CN1CCC(CC(=O)NO)(CC(C)C)C1=O (stereo not drawn) [Example 20, N^3 -Hydroxy-N^1-methyl-3-(2-methylpropyl)-2-oxo-1,3-pyrrolidinediacetamide]
385 | 72 | 160 | CC(C)C[C@@]1(CC(=O)NO)CCN([C@@H](CCc2ccccc2)C(=O)NCc2ccccc2)C1=O [Example 48, [S-(R*,R*)]-N^3 -Hydroxy-3-(2-methylpropyl)-2-oxo-α^1-(2-phenylethyl)-N^1-(phenylmethyl)-1,3-pyrrolidinediacetamide]
283 | 6.06 | 17 | CNC(=O)[C@H](C1CCCCC1)N1CC[C@](CC(=O)NO)(CC(C)C)C1=O [Example 50, [S-(R*,R*)]-α^1 -Cyclohexyl-N^3-hydroxy-N^1-methyl-3-(2-methylpropyl)-2-oxo-1,3-pyrrolidinediacetamide]
2080 | 22 | 49 | CNC(=O)C(Cc1ccccc1)N1CCC(CC(=O)NO)(CC(C)C)C1=O (stereo not drawn) [Example 21, N^3 -Hydroxy-N^1-methyl-3-(2-methylpropyl)-2-oxo-α^1-(phenylmethyl)-1,3-pyrrolidinediacetamide]
